Measured values as given in the Kinase Knowledgebase extract (Sharma et al. 2016).

Target: CDK2 (UniProt P24941)
Experiment: Enzyme Assay
Conditions: for inhibition: concentration not given here

Ki | inhibition | SMILES
682 nM | 57% | O=C1NC(=O)C2=C1c1cn(c3ncccc13)CCCCC(O)CCCCn1cc2c2cccnc21
– | 20% | O=C1NC(=O)C2=C1c1cn(c3ncccc13)CCCC1=CC=C(CCCn3cc2c2cccnc23)S1
1230 nM | 50% | O=C1CCCCn2cc(c3cccnc32)C2=C(C(=O)NC2=O)c2cn(c3ncccc23)CCCC1
